Experiments:
[1] = test system: potassium channels; assay: Membrane Hyperpolarization (MHP) in Guinea-Pig Bladder (GPB) Cells, FLIPR with DiBAC(4)3; assay type: cell-based; conditions: for EC50: concentration eliciting 50% of the test sample's maximal response; for Maximal Response (% P1075): maximal steady-state hyperpolarization relative to 10 μM P1075 (100%)
Protocol: Compounds were evaluated for potassium channel opening activity using primary cultured quinea-pig urinary bladder (GPB) cells.
For the preparation of urinary bladder smooth muscle cells, urinary bladders were removed from male quinea-pigs (Hartley, Charles River, Wilmington, Mass.) weighing 300-400 g and placed in ice-cold Ca^2+ -free Krebs solution (Composition, mM: KCl, 2.7; KH2 PO4, 1.5; NaCl, 75; Na2 HPO4, 9.6; Na2 HPO4.7H2 O, 8; MgSO4, 2; glucose, 5; HEPES, 10; pH 7.4). Cells were isolated by enzymatic dissociation as previously described with minor modifications in (Klockner, U. and Isenberg, G., Pflugers Arch. 1985, 405, 329-339), hereby incorporated by reference. The bladder was cut into small sections and incubated in 5 mL of the Kreb's solution containing 1 mg/mL collagenase (Sigma, St. Louis, Mo.) and 0.2 mg/mL pronase (Calbiochem, La Jolla, Calif.) with continuous stirring in a cell incubator for 30 minutes. The mixture was then centrifuged at 1300×g for 5 minutes, and the pellet resuspended in Dulbecco's PBS (GIBCO, Gaithersburg, Md.) and recentrifuged to remove residual enzyme. The cell pellet was resuspended in 5 mL growth media (composition: Dulbecco's modified Eagle's medium supplemented with 10% fetal bovine serum, 100 units/niL penicillin, 100 units/mL streptomycin and […] amphotericin B) and further dissociated by pipetting the suspension through a flame-polished Pasteur pipette and passing it through a polypropylene mesh membrane (Spectrum, Houston, Tex.). The cell density was adjusted to 100,000 cells/mL by resuspension in growth media. Cells were plated in clear-bottomed black 96-well plates (Packard) for membrane potential studies at a density of 20,000 cells/well and maintained in a cell incubator with 90% air: 10% CO2 until confluent. Cells were confirmed to be of smooth muscle type by cytoskeletal staining using a monoclonal mouse anti human-α-smooth muscle actin (Biomeda, Foster City, Calif.).
Functional activity at potassium channels was measured by evaluating changes in membrane potential using the bis-oxonol dye DiBAC(4)3 (Molecular Probes) in a 96-well cell-based kinetic assay system, Fluorescent Imaging Plate Reader (FLIPR) (K. S. Schroeder et al., J. Biomed. Screen., v. 1 pp. 75-81 (1996)), hereby incorporated by reference. DiBAC(4)3 is an anionic potentiometric probe which partitions between cells and extracellular solution in a membrane potential-dependent manner. With increasing membrane potential (for example, K^+ depolarization), the probe further partitions into the cell; this is measured as an increase in fluorescence due to dye interaction with intracellular lipids and proteins. Conversely, decreasing membrane potential (hyperpolarizationby potassium channel openers) evokes a decrease in fluorescence.
Confluent quinea-pig urinary bladder cells cultured in black clear-bottomed96-well plates were rinsed twice with […] assay buffer (composition, mM: HEPES, 20; NaCl, 120; KCl, 2; CaCl2, 2; MgCl2, 1; glucose, 5; pH 7.4 at 25 ° C.) containing 5 μM DiBAC(4)3 and incubated with […] of the buffer in a cell incubator for 30 minutes at 37 ° C. to ensure dye distribution across the membrane. After recording the baseline fluorescence for 5 minutes, the reference or test compounds, prepared at 10 times the concentration in the assay buffer, were added directly to the wells. Changes in fluorescence were monitored for an additional 25 minutes. Hyperpolarization responses were corrected for any background noise and were normalized to the response observed with 10 μM of the reference compound P1075, N"-cyano-N-(tert-pentyl)-N'-(3-pyridinyl)quanidine, which was assigned as 100%. P1075 is a potent opener of smooth muscle KATP channels (Quast et al., Mol. Pharmacol., v. 43 pp. 474-481 (1993)) and was prepared using the procedures described in (Manley, J. Med. Chem. (1992) 35, 2327-2340), hereby incorporated by reference. […]

[2] = test system: potassium channel; assay: Functional Potassium Channel Opening Activity in Isolated Bladder Strips (electrically stimulated twitch); conditions: Landrace pig bladder strips; for Index: ED50 of P1075 divided by ED50 of test agonist, averaged over tissues; for Efficacy (% P1075): maximal efficacy relative to P1075, field stimulation 0.05 Hz; for pD2: negative logarithm of ED50
Protocol: Compounds of the present invention were evaluated for functional potassium channel opening activity using tissue strips obtained from Landrace pig bladders.
Landrace pig bladders were obtained from female Landrace pigs of 9-30 kg. Landrace pigs wer eutanized with an intraperitoneal injection of pentobarbital solution, Somlethal®, J. A. Webster Inc., Sterling Mass. The entire bladder was removed and immediately placed into Krebs Ringer bicarbonate solution (composition, mM: NaCl, 120; NaHCO3, 20; dextrose, 11; KCl, 4.7; CaCl2, 2.5; MgSO4, 1.5; KH2 PO4, 1.2; K2 EDTA, 0.01, equilibrated with 5% CO2 /95% O2 pH 7.4 at 37 ° C.). Propranolol (0.004 mM) was included in all of the assays to block β-adrenoceptors. The trigonal and dome portions were discarded. Strips 3-5 mm wide and 20 mm long were prepared from the remaining tissue cut in a circular fashion. The mucosal layer was removed. One end was fixed to a stationary glass rod and the other to a Grass FT03 transducer at a basal preload of 1.0 gram. Two parallel platinum electrodes were included in the stationary glass rod to provide field stimulation of 0.05 Hz, 0.5 milli-seconds at 20 volts. This low frequency stimulation produced a stable twitch response of 100-500 centigrams. Tissues were allowed to equilibrate for at least 60 minutes and primed with 80 mM KCl. A control concentration response curve (cumulative) was generated for each tissue using the potassium channel opener P1075 as the control agonist. […] After a 60 minute rinsing period, a concentration response curve (cumulative) was generated for the test agonist in the same fashion as that used for the control agonist P1075. The maximal efficacy of each compounds (expressed as % relative to P1075) is reported. The amount of agent necessary to cause 50% of the agent's maximal response (ED50) was calculated using "ALLFIT" (DeLean et al., Am. J. Physiol., 235, E97 (1980)), hereby incorporated by reference, and agonist potencies were expressed as pD2 (the negative logarithm). Agonist potencies were also expressed as an index relative to P1075. The index was calculated by dividing the ED50 for P1075 by the ED50 for the test agonist in a given tissue. Each tissue was used for only one test agonist, and the indices obtained from each tissue were averaged to provide an average index of potency.

[3] = target: smooth muscle KATP channels (Rattus norvegicus, UniProt Q63563); conditions: Quast et al., Mol. Pharmacol., v. 43 pp. 474-481 (1993); cited from earlier work
smooth muscle KATP channels, sequence (Q63563 1-1545 isoform Q63563-2): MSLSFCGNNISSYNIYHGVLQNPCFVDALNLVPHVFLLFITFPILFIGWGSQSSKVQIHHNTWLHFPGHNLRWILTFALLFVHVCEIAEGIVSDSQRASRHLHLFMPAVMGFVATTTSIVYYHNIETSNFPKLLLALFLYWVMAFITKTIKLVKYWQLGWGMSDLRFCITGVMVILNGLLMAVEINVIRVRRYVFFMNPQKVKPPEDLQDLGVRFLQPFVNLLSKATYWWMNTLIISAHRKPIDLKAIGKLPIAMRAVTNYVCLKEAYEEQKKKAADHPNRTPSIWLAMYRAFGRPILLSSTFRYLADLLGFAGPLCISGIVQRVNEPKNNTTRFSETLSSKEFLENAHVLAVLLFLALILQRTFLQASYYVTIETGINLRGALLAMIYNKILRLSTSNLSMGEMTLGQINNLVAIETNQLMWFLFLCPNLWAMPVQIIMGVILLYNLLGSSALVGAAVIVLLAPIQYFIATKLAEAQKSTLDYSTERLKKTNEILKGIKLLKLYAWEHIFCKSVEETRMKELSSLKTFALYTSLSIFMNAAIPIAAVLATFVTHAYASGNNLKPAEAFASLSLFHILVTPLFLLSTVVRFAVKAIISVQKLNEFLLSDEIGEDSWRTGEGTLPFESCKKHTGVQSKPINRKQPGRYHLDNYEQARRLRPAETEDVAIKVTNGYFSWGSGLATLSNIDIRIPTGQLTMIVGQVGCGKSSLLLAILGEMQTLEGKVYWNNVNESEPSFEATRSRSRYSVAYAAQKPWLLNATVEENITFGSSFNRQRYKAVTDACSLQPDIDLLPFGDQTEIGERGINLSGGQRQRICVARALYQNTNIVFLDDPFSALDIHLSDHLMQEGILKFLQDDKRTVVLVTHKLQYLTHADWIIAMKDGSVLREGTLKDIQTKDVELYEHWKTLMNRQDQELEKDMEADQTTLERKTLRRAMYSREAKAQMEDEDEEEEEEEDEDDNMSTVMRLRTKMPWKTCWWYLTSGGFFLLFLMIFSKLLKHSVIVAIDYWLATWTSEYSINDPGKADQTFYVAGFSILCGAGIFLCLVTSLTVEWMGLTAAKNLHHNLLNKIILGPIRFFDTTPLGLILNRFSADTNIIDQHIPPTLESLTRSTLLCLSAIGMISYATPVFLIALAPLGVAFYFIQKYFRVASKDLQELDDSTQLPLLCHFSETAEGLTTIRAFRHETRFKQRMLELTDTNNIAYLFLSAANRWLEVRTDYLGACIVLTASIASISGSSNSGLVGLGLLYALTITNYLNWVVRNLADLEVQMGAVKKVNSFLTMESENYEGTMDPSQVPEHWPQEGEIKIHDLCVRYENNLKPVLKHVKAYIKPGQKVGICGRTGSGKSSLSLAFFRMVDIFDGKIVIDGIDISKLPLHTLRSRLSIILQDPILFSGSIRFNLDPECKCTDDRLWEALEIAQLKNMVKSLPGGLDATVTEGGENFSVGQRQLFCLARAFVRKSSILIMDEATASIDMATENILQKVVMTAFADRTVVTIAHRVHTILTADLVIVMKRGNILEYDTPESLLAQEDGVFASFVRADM
smooth muscle KATP channels, sequence (Q63664 whole entry partner): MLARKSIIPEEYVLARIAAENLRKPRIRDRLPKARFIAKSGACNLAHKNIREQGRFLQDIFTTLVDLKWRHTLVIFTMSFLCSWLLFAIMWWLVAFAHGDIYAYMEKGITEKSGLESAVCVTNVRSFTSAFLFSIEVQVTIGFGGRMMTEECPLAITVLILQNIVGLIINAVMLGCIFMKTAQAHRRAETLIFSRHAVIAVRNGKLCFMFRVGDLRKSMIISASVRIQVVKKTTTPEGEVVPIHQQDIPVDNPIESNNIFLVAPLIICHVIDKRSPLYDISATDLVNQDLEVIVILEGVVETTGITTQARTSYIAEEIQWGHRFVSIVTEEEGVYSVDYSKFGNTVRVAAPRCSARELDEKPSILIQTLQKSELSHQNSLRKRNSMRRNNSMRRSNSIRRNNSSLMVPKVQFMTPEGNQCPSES

| EC50 [1] | SMILES | Maximal Response (% P1075) [1] | Index [2] | Efficacy (% P1075) [2] | pD2 [2] | elimination of the stimulated twitch ([2]; dose dependent over 10^-9 to 10^-5 M) | opener of smooth muscle KATP channels [3] |
| --- | --- | --- | --- | --- | --- | --- | --- |
| 10000 nM | Cc1cccc(C2C3=C(CCCC3=O)Nc3ccnn32)c1 (stereo not drawn) [Example 13, 9-(3-methylphenyl)-5,6,7,9-tetrahydropyrazolo[5,1-b]quinazolin-8(4H)-one] | 50 % P1075 | – | – | – | – | – |
| 122 nM | O=C1CCCC2=C1C(c1ccc(Br)c(Br)c1)n1nccc1N2 (stereo not drawn) [Example 5, 9-(3 4-dibromophenyl)-5,6,7,9-tetrahydropyrazolo[5,1-b]quinazolin-8(4H)-one] | 98 % P1075 | – | – | – | – | – |
| 20 nM | O=C1CCCC2=C1C(c1ccc(F)c(Br)c1)n1nccc1N2 (single isomer, unassigned; (+)) [Example 16, (+) 9-(3-bromo-4-fluorophenyl)-5,6,7,9-tetrahydropyrazolo [5,1-b]quinazolin-8(4H)-one] | 105 % P1075 | 0.28 | 95 % P1075 | 6.34 | – | – |
| 130 nM | O=C1CCCC2=C1C(c1ccc(Cl)c(Cl)c1)n1nccc1N2 (stereo not drawn) [Example 6, 9-(3,4-dichlorophenyl)-5,6,7,9-tetrahydropyrazolo [5,1-b]quinazolin-8(4H)-one] | 95 % P1075 | – | – | – | – | – |
| 290 nM | O=C1CCCC2=C1C(c1ccc(F)c(C(F)(F)F)c1)n1nccc1N2 (stereo not drawn) [Example 10, 9-[4-fluoro-3-(trifluoromethyl)phenyl]-5,6,7,9-tetrahydropyrazolo[5,1-b]quinazolin-8(4H)-one] | 100 % P1075 | – | – | – | – | – |
| 40 nM | O=C1CSCC2=C1C(c1ccc(F)c(Br)c1)n1nccc1N2 (stereo not drawn) [Example 2, 9-(3-bromo-4-fluorophenyl)-5,9-dihydro-4H-pyrazolo[1,5-a]thiopyrano[3,4-d]pyrimidin-8(7H)-one] | 100 % P1075 | – | – | – | – | – |
| – | CCC(C)(C)NC(=NC#N)Nc1cccnc1 [Example P1075, N"-cyano-N-(tert-pentyl)-N'-(3-pyridinyl)quanidine, reference compound] | – | – | – | – | completely eliminated the stimulated twitch | potent opener |
| 24000 nM | O=C1CCCC2=C1C(c1cccc3ccccc13)n1nccc1N2 (stereo not drawn) [Example 3, 9-(1-naphthyl)-5,6,7,9-tetrahydropyrazolo[5,1-b]quinazolin-8(4H)-one] | 34 % P1075 | – | – | – | – | – |
| 1710 nM | O=C1CCCC2=C1C(c1cccc(OC(F)(F)F)c1)n1nccc1N2 (stereo not drawn) [Example 11, 9-[3-(trifluoromethoxy)phenyl]-5,6,7,9-tetrahydropyrazolo[5,1-b]quinazolin-8(4H)-one] | 90 % P1075 | – | – | – | – | – |
| 31 nM | O=C1CCCC2=C1C(c1ccc(F)c(Br)c1)n1nccc1N2 (stereo not drawn) [Example 1] | 87 % P1075 | 0.26 | 96 % P1075 | 6.47 | – | – |
| 1120 nM | O=C1CCCC2=C1C(c1cccc(Cl)c1)n1nccc1N2 (stereo not drawn) [Example 8, 9-(3-chlorophenyl)-5,6,7,9-tetrahydropyrazolo[5,1-b]quinazolin-8(4H)-one] | 92 % P1075 | – | – | – | – | – |
| 51 nM | O=C1CCCC2=C1C(c1ccc(F)c(Br)c1)n1nccc1N2 (single isomer, unassigned; (-)) [Example 15, (-) 9-(3-bromo-4-fluorophenyl)-5,6,7,9-tetrahydropyrazolo[5,1-b]quinazolin-8(4H)-one] | 103 % P1075 | 0.21 | 100 % P1075 | 6.67 | – | – |
| 910 nM | O=S1(=O)CCCC2=C1C(c1ccc(F)c(Br)c1)n1nccc1N2 (stereo not drawn) [Example 17] | 89 % P1075 | – | – | – | – | – |
| 187 nM | O=C1CCCC2=C1C(c1ccc(Cl)c(C(F)(F)F)c1)n1nccc1N2 (stereo not drawn) [Example 9, 9-[4-chloro-3-(trifluoromethyl)phenyl]-5,6,7,9-tetrahydropyrazolo[5,1-b]quinazolin-8(4H)-one] | 94 % P1075 | – | – | – | – | – |
| 429 nM | O=C1CCCC2=C1C(c1ccc3ccccc3c1)n1nccc1N2 (stereo not drawn) [Example 4, 9-(2-naphthyl)-5,6,7,9-tetrahydropyrazolo[5,1-b]quinazolin-8(4H)-one] | 96 % P1075 | – | – | – | – | – |
| 258 nM | O=C1OCC2=C1C(c1ccc(F)c(Br)c1)n1nccc1N2 (stereo not drawn) [Example 14, 8-(3-bromo-4-fluorophenyl)-5,8-dihydro-4H,7H-furo[3,4-d]pyrazolo[1,5-a]pyrimidin-7-one] | 89 % P1075 | – | – | – | – | – |
| 550 nM | O=C1CCCC2=C1C(c1cccc(Br)c1)n1nccc1N2 (stereo not drawn) [Example 7, 9-(3-bromophenyl)-5,6,7,9-tetrahydropyrazolo[5,1-b]quinazolin-8(4H)-one] | 98 % P1075 | – | – | – | – | – |
| 2860 nM | N#Cc1cccc(C2C3=C(CCCC3=O)Nc3ccnn32)c1 (stereo not drawn) [Example 12, 9-(3-cyanophenyl)-5,6,7,9-tetrahydropyrazolo[5,1-b]quinazolin-8(4H)-one] | 85 % P1075 | – | – | – | – | – |
